Experimental data as given in publication PMC11056381, “Characterization and evaluation of cytotoxic and antimicrobial activities of cyclotides from Viola japonica” (Scientific Reports, 2024).
≈ marks a conversion by molar mass, not a printed value. Residues, ends and D or L forms follow the SMILES beside them.

Experiments:
[1] = system: 4T1 (mouse breast cancer cells); test: MTT cytotoxicity assay; assay type: cell-based; settings: 4T1 cells, 48 h incubation, mean ± SD of at least three repeats
Method: (§1) Five types of cells, namely A549 (human non-small cell lung cancer cells), T24 (human bladder cancer cells), 4T1 (mouse breast cancer cells), 7402 (human hepatocellular carcinoma cells), and THLE-3 (human hepatocytes cells), are selected for evaluating the cytotoxicity of viba 11, cycloviolacin O2, and vija 10 using the MTT (3-(4,5-dimethylthiazol-2-yl)-2,5-diphenyltetrazolium bromide) reagent.
(§2) To determine cell toxicity using MTT assay, cells are seeded in a 96-well plate and cultured for 24 h. After that, different concentrations of cyclotides are added to the cells and incubated for 48 h. MTT is then added to react with the cells, and after 4 h, the reaction is terminated by discarding the supernatant and adding dimethyl sulfoxide for resuspension. The absorbance at 570 nm is measured after 10 min of shaking at room temperature. Each test was performed three times at least. The data were analyzed using GraphPad Prism 8. During this process, the drug concentrations were transformed into logarithmic form with a base of 10 and plotted on the x-axis. Cell viability (%) = [A (cyclotides) − A (blank)]/[A (control) − A (blank)] × 100, which was represented on the y-axis. Using this method, we determined the IC50 value for each experiment, with each experiment repeated at least three times and the mean value calculated. The error was represented by the standard deviation of the IC50 obtained from three repetitions.

[2] = system: THLE-3 (human hepatocytes cells); test: MTT cytotoxicity assay; assay type: cell-based; settings: THLE-3 cells, 48 h incubation, mean ± SD of at least three repeats
Method: as §1, §2

[3] = system: A549 (human non-small cell lung cancer cells); test: MTT cytotoxicity assay; assay type: cell-based; settings: 48 h incubation, mean ± SD of at least three repeats
Method: as §1, §2

[4] = system: T24 (human bladder cancer cells); test: MTT cytotoxicity assay; assay type: cell-based; settings: 48 h incubation, mean ± SD of at least three repeats
Method: as §1, §2

[5] = system: 7402 (human hepatocellular carcinoma cells); test: MTT cytotoxicity assay; assay type: cell-based; settings: 7402 cells, 48 h incubation, mean ± SD of at least three repeats
Method: as §1, §2

Acinetobacter baumannii = test: DAPI/PI staining, laser scanning confocal microscopy (membrane integrity); assay type: cell-based; settings: A. baumannii 10^8 CFU/mL, 37 °C, 1-2 h, DAPI and PI staining
Description: Many naturally occurring antimicrobial peptides (AMPs) are cationic. Cationic AMPs (CAMPs) exert bactericidal activity by mechanisms featuring cell membrane disruption. Cyclotides are likely to kill germ by disrupting their membranes. Laser scanning confocal microscopy can be used to study the ability of cyclotides to destroy bacterial membrane. 4′, 6-diaminyl-2-phenylindole (DAPI) is a blue fluorescent dye that can penetrate membranes and stain both living and dead strains, while propyl iodide (PI) stains only strains with damaged membranes, glowing red[46],[47]. In this study, the bracelet cyclotide family members viba 11 and vija 10 interacted with A. baumannii and B. subtilis in their logarithmic phase at 37 °C for 1–2 h. After the addition of DAPI and PI fluorescent dyes, the samples were incubated in a dark room at room temperature for 15 min for staining. The stained samples were then centrifuged to concentrate, resuspended, and applied to a slide for observation using a confocal laser scanning microscope (FLUOVIEW FV3000, Olympus). […] With increasing concentration, the blue and red fluorescence gradually overlapped. […] However, the magnification is not sufficient to detect further details of membrane disruption. Therefore, further exploration can be conducted using methods such as scanning electron microscopy (SEM) to study the antibacterial mechanism in depth.
Figure 5 Study on the antimicrobial mechanism of cyclotides. (A) Incubation of Acinetobacter baumannii with sterile water, 1 MIC and 4 MIC of viba 11. (B) Incubation of Bacillus subtilis with sterile water, 1 MIC and 4 MIC of vija 10. All samples were stained with DAPI and PI. The negative control group PI is not stained and the membrane is intact, while the membrane treated with cyclotides was stained and the membrane are destroyed. Scale bar: 20 μm. Magnification: 600×.
Take 50 μL of A. baumannii and B. subtilis (10^8 CFU/mL), and add 50 μL of sterile water, different concentrations of cyclotides viba 11 and vija 10 to achieve final concentrations of 1 MIC and 4 MIC respectively. Incubate at 37 °C for 1–2 h. Subsequently, add 4,6-diamino-2-phenylindole (DAPI) and propidium iodide (PI) dyes at 20 μg/mL each, and incubate in the dark for 15 min. Centrifuge at 5000 rpm for 3 min to concentrate, discard the majority of the supernatant, and resuspend the bacteria in the remaining small volume of liquid. Mix well and take 10 μL of the stained sample onto a glass slide, gently place a cover slip on top with forceps, avoiding the formation of bubbles during the pressing process. After sealing the cover slip, check with a laser confocal microscope, and the observation was conducted using an objective lens with the maximum magnification of 60 × . […]

[6] = system: Salmonella paratyphi (CMCC(B)50094-2-9); test: MIC, broth dilution in 96-well plate; assay type: cell-based; settings: 10^6 CFU/ml, overnight 37 °C, visual clarity, performed at least three times
Description: (§3) Cycloviolacin O2, known for its antimicrobial, hemolytic, and insecticidal activities, has been more extensively investigated[4],[20],[36]–[38]. Viba 11, originally discovered in Viola baoshanensis[39] and found in other plants such as Viola tricolor[40], Viola betonicifolia, and Viola philippica, lacks biological activity studies. These two cyclotides and vija 10 are high in content and easy to purify, and cycloviolacin O2 can also be used as a positive control to conduct activity study. In addition, few vija12 and 31 were extracted for antibacterial experiments. All purified cyclotides underwent antibacterial testing against Gram-positive bacterium Staphylococcus aureus (CMCC(B)26003-2-10) and Bacillus subtilis (CMCC(B)63501), Gram-negative bacteria, including Acinetobacter baumannii (ATCC19606), Escherichia coli (CMCC(B)44102-2-6), and Salmonella paratyphi (CMCC(B)50094-2-9). […] In addition, the MICs of viba 11, cycloviolacin O2 and vija 10 against B. subtilis were respectively 5.4 μM, 2.1 μM and 14.3 μM (Table 1). […] Therefore, it is hypothesized that the lower antimicrobial activity of vija 10 may be attributed to the presence of only one Lys residue in loop 5.
(§4) Bacterial fluids are cultured overnight at 37 °C. The next day, the bacterial liquids are diluted to a concentration of 10^6 CFU/ml. Prepare different concentrations of cyclotide drugs and kanamycin sulfate in advance, and sequentially add the drugs and bacterial liquid to the 96-well plate. Negative controls consisted of sterile water and bacterial liquid. The plate is cultured overnight at 37 °C and observe whether the solution remains clear to see the growth of the bacterial suspension. Each test was performed three times at least.

[7] = system: Staphylococcus aureus (CMCC(B)26003-2-10); test: MIC, broth dilution in 96-well plate; assay type: cell-based; settings: 10^6 CFU/ml, overnight 37 °C, visual clarity, performed at least three times
Description: as §3, §4

[8] = system: Bacillus subtilis (CMCC(B)63501); test: microbe, parasite or virus in culture; settings: 10^6 CFU/ml, 96-well plate, overnight 37 °C, visual clarity, performed at least three times
Description: (§5) Viba 11, originally discovered in Viola baoshanensis[39] and found in other plants such as Viola tricolor[40], Viola betonicifolia, and Viola philippica, lacks biological activity studies. […] All purified cyclotides underwent antibacterial testing against Gram-positive bacterium Staphylococcus aureus (CMCC(B)26003-2-10) and Bacillus subtilis (CMCC(B)63501), Gram-negative bacteria, including Acinetobacter baumannii (ATCC19606), Escherichia coli (CMCC(B)44102-2-6), and Salmonella paratyphi (CMCC(B)50094-2-9).
as §4

[9] = system: Acinetobacter baumannii (ATCC19606); test: microbe, parasite or virus in culture; settings: Acinetobacter baumannii ATCC19606; 10^6 CFU/ml, 96-well plate, overnight 37 °C, visual clarity; performed at least three times
Description: as §5, §4

[10] = system: Escherichia coli (CMCC(B)44102-2-6); test: microbe, parasite or virus in culture; settings: 10^6 CFU/ml, 96-well plate, overnight 37 °C, visual clarity, performed at least three times
Description: as §5, §4

CC[C@H](C)[C@@H]1NC(=O)[C@H](C)NC(=O)CNC(=O)[C@H](CO)NC(=O)[C@H]([C@@H](C)CC)NC(=O)[C@@H]2CSSC[C@@H]3NC(=O)[C@H](C(C)C)NC(=O)[C@H](CCCCN)NC(=O)[C@H](CO)NC(=O)[C@H](CCCCN)NC(=O)[C@@H]4CSSC[C@H](NC(=O)[C@H](CO)NC(=O)[C@H](CCC(=O)O)NC(=O)CNC(=O)[C@H](CSSC[C@H](NC(=O)CNC1=O)C(=O)N[C@@H](CO)C(=O)N4)NC(=O)[C@@H]1CCCN1C(=O)[C@H]([C@@H](C)CC)NC(=O)CNC(=O)[C@H](CC(N)=O)NC(=O)[C@H](CCCNC(=N)N)NC(=O)[C@H](Cc1ccc(O)cc1)NC3=O)C(=O)N[C@@H](C(C)C)C(=O)N[C@@H](Cc1c[nH]c3ccccc13)C(=O)N[C@@H]([C@@H](C)CC)C(=O)N1CCC[C@H]1C(=O)N2 [viba 11] (HELM PEPTIDE1{A.I.G.C.S.C.K.S.K.V.C.Y.R.N.G.I.P.C.G.E.S.C.V.W.I.P.C.I.S.G}$PEPTIDE1,PEPTIDE1,4:R3-18:R3|PEPTIDE1,PEPTIDE1,6:R3-22:R3|PEPTIDE1,PEPTIDE1,11:R3-27:R3|PEPTIDE1,PEPTIDE1,1:R1-30:R2$$$V2.0)
IC50 [1]: 285 ± 10 nM
IC50 [2]: 1609 ± 10 nM
IC50 [3]: 195 ± 90 nM
IC50 [4]: 724 ± 170 nM
IC50 [5]: 1700 ± 50 nM
membrane integrity (PI red fluorescence) (Acinetobacter baumannii; 1 MIC): caused damage to the membrane integrity
membrane integrity (PI red fluorescence) (Acinetobacter baumannii; 4 MIC): majority of the cell membranes were ruptured
MIC [6]: > 21.6 µM
MIC [7]: > 21.6 µM
MIC [8]: 5.4 µM (≈ 16.8 µg/mL)
MIC [9]: 10.8 µM (≈ 33.6 µg/mL)
MIC [10]: > 21.6 µM
